Reference: publication PMC7316994, “In Vitro Pharmacological Profile of a New Small Molecule Bradykinin B2 Receptor Antagonist” (Frontiers in Pharmacology, 2020)
Where two headings read alike, the source gives them in different places.

Assays:
Bradykinin B1 = biological target: T1, Bradykinin B1 (Homo sapiens, UniProt P46663); test: radioligand binding (Table S2)
T1 construct: host or cells: CHO cells

[1] = biological target: T2, Benzodiazepine BZD (peripheral) (Rattus norvegicus, UniProt P16257); test: radioligand binding (Table S2)
T2 construct: tissue Eurofins; host or cells: rat heart

Adrenergic α1A = Adrenergic α1A (Homo sapiens, UniProt P35348); test: radioligand binding (Table S2); conditions: read-out: % Inhibition @ 10 µM
Chain of Adrenergic α1A (P35348 whole entry): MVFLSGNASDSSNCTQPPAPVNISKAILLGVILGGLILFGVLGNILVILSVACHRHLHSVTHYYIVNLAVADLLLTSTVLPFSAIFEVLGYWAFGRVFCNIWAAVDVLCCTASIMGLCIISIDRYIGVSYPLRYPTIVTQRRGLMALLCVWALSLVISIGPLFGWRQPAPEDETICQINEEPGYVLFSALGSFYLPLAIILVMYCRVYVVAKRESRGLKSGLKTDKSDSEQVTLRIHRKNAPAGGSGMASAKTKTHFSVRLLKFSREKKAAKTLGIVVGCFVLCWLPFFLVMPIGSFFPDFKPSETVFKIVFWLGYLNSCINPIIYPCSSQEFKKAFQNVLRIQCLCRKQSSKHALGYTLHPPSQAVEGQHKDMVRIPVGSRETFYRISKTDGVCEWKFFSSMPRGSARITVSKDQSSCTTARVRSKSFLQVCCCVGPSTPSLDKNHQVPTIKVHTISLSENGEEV

PDGFRα kinase = biological target: T3, PDGFRα kinase (Homo sapiens, UniProt P16234); test: enzyme assay (Table S2); format: biochemical; conditions: ATP + Ulight-TK peptide (100 nM), LANCE
T3 construct: Eurofins (assay provider)
T3 sequence (P16234 24-1089): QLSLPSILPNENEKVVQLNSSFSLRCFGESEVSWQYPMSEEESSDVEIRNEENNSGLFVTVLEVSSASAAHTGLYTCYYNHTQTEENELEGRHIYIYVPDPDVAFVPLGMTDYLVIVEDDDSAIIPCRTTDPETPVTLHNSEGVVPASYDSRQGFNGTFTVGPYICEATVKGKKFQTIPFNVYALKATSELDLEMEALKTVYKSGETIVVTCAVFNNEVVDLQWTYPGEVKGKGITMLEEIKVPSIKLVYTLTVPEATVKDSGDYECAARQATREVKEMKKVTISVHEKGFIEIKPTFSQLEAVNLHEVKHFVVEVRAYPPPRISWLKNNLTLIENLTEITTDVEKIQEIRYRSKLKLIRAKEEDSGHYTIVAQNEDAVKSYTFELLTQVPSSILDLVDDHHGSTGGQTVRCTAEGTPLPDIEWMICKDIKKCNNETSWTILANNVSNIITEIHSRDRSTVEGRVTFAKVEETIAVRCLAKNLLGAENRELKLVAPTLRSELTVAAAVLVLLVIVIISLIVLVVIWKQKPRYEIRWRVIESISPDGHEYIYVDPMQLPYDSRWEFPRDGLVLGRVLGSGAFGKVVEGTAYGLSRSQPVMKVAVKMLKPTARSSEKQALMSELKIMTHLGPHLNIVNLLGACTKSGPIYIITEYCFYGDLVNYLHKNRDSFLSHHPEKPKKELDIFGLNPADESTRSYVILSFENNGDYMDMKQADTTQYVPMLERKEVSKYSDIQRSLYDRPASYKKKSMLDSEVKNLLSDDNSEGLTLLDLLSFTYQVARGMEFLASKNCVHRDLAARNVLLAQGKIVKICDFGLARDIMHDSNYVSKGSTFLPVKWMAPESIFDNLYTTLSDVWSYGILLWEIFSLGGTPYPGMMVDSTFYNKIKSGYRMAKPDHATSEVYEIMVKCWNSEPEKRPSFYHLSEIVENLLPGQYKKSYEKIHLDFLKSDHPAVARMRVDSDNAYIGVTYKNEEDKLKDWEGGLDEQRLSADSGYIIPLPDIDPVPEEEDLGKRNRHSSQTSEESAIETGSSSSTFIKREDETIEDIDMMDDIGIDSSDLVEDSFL

Purinergic receptor P2Y = test: radioligand binding (Table S2); conditions: [35S] dATPαS, Rat cerebral cortex
B2 receptor = biological target: T4, B2 receptor (Homo sapiens, UniProt P30411); test: [^3H]BK competition binding assay, CHO cell membranes; set-up: host or cells: CHO cells; conditions: competition with 0.3 nM [^3H]BK
T4 sequence (P30411 1-391): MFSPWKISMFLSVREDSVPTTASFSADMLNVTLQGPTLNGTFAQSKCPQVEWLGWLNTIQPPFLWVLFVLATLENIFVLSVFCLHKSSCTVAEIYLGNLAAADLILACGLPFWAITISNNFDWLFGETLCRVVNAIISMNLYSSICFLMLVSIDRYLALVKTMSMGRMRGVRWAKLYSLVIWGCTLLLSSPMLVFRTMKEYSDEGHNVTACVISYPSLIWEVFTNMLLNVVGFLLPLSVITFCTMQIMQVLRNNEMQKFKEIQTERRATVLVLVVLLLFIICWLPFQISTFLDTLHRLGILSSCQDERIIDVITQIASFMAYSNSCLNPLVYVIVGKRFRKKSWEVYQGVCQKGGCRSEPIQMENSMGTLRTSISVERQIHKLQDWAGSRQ

[2] = biological target: T5, Nicotinic N neuronal α4β2 (Homo sapiens, UniProt P17787+P43681); test: radioligand binding (Table S2); conditions: [3H] Cytisine, Human recombinant SH-SY5Y cells
T5 construct: host or cells: SH-SY5Y cells

Potassium channel hERG = Potassium channel hERG (Homo sapiens, UniProt Q12809); test: in vitro
Apelin APJ = Apelin APJ (Homo sapiens, UniProt P35414); test: radioligand binding (Table S2); conditions: [125I] [Glp65, Nle75, Tyr77]-apelin-13, Human recombinant CHO cells
Chain of Apelin APJ (P35414 whole entry): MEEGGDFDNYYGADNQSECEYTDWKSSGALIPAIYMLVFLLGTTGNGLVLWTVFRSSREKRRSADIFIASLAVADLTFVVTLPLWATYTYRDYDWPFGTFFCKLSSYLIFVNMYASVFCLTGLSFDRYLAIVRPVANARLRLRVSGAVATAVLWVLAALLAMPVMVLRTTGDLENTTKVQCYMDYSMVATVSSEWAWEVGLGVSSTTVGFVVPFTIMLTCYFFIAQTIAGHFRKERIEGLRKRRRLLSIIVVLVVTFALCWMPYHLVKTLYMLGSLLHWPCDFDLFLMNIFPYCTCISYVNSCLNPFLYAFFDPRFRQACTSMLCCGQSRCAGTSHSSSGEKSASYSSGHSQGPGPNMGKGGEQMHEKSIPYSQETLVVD

IRK (InsR) = biological target: T6, IRK (InsR) (Homo sapiens, UniProt P06213); test: enzyme assay (Table S2); format: biochemical; conditions: ATP + Ulight-PolyGAT (50 nM), LANCE
T6 construct: Eurofins (assay provider)

[3] = system: Calcium Ca2+ channel (L-dihydropyridine site); test: radioligand binding (Table S2); conditions: [3H] Nitrendepine, Rat cerebral cortex
[4] = biological target: T7, Growth hormone secretagogue (GHS, ghrelin) (Homo sapiens, UniProt Q92847); test: radioligand binding (Table S2); conditions: [125I] Ghrelin (human), Human recombinant CHO-K1 cells
T7 construct: host or cells: CHO-K1 cells
T7 sequence (Q92847 whole entry): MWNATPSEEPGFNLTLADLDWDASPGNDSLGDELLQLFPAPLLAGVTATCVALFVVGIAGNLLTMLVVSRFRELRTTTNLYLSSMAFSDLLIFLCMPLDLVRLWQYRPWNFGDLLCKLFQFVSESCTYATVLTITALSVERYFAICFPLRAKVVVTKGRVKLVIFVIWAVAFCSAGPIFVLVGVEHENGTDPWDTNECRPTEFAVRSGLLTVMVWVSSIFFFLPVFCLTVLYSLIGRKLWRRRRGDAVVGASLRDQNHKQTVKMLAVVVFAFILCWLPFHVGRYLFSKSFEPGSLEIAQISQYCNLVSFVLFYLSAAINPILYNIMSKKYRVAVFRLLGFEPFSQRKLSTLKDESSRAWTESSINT

Adenosine A1 = Adenosine A1 (Homo sapiens, UniProt P30542); test: radioligand binding (Table S2); conditions: [3H] DPCPX, Human recombinant CHO cells
Chain of Adenosine A1 (P30542 whole entry): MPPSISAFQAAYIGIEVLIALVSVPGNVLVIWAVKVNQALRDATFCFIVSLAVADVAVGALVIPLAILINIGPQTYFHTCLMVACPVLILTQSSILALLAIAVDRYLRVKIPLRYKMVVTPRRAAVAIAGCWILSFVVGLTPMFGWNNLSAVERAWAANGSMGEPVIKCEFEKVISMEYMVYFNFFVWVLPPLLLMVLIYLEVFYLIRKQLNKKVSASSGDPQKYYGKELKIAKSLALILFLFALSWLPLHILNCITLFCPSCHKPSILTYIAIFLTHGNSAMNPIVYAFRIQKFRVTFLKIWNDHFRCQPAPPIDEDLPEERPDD

Glucagon = Glucagon (Homo sapiens, UniProt P47871); test: radioligand binding (Table S2); conditions: read-out: % Inhibition @ 10 µM
Lck kinase = Lck kinase (Homo sapiens, UniProt P06239); test: enzyme assay (Table S2); format: biochemical; conditions: ATP + Ulight-PolyGAT (25 nM), LANCE
[5] = biological target: T8, Serotonin 5-HT transporter (Homo sapiens, UniProt P31645); test: radioligand binding (Table S2); conditions: [3H] Imipramine, Human recombinant CHO cells
T8 construct: host or cells: CHO cells
T8 sequence (P31645 whole entry): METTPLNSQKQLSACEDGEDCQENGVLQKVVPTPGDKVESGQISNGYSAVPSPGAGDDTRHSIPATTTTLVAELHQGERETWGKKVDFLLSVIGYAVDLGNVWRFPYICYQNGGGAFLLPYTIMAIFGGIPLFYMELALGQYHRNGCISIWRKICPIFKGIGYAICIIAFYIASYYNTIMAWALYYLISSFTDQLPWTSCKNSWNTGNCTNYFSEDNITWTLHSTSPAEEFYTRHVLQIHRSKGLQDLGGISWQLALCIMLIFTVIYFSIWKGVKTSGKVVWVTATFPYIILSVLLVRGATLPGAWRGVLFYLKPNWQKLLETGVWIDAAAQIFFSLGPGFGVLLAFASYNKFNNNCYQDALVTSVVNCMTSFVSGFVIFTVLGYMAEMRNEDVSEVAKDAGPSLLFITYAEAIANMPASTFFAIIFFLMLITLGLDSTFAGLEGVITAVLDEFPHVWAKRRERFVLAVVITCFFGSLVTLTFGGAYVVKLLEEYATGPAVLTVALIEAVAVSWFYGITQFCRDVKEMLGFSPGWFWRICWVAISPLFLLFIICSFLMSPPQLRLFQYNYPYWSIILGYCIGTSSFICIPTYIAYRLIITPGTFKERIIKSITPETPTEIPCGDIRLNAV

dog B2 receptor = biological target: T9, dog B2 receptor (Canis lupus familiaris, UniProt Q9BDQ4); test: Ca^2+ mobilization assay, HEK293T cells; format: cell-based
T9 sequence (Q9BDQ4 1-392): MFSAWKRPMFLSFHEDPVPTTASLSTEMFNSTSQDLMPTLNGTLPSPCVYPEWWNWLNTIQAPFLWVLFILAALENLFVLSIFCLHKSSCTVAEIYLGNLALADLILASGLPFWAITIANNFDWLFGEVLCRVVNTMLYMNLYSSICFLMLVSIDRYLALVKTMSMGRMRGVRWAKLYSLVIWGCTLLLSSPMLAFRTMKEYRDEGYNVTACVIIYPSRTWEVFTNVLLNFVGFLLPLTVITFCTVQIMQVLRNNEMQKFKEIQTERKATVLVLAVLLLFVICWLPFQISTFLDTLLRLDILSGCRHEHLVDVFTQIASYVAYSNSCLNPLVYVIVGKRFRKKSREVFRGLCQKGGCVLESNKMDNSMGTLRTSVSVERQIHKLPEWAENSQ

[6] = biological target: T10, Opioid nociceptin NOP (ORL1) (Homo sapiens, UniProt P41146); test: radioligand binding (Table S2); conditions: [3H] Nociceptin, Human recombinant HEK-293 cells
T10 construct: host or cells: HEK-293 cells
T10 sequence (P41146 whole entry): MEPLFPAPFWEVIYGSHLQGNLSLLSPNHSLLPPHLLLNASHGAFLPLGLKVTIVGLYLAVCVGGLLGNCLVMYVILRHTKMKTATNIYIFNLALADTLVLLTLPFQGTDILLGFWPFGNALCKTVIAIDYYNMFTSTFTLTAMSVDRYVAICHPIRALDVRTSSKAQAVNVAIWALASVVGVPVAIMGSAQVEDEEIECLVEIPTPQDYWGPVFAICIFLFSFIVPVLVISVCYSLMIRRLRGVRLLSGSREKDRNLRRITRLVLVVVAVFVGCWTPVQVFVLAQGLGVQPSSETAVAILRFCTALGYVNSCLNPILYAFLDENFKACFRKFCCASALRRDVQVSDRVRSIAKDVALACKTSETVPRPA

Adrenergic β1 = Adrenergic β1 (Homo sapiens, UniProt P08588); test: radioligand binding (Table S2); conditions: read-out: % Inhibition @ 10 µM
Chain of Adrenergic β1 (P08588 whole entry): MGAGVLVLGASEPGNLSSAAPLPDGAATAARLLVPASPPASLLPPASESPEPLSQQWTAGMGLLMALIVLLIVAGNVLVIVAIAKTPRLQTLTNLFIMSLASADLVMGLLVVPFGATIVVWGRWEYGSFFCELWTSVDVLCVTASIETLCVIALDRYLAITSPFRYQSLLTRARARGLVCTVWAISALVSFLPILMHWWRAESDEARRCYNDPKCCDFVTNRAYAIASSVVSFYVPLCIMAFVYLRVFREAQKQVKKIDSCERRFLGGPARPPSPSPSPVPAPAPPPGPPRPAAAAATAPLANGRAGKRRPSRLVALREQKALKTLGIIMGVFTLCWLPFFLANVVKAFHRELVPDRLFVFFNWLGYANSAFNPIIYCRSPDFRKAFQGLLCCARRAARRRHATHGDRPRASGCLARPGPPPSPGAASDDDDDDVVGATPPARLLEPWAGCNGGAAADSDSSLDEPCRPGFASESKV

Galanin GAL1 = Galanin GAL1 (Homo sapiens, UniProt P47211); test: radioligand binding (Table S2); conditions: [125I] Galanin, Human recombinant HEK-293 cells
Motilin = Motilin (Homo sapiens, UniProt O43193); test: radioligand binding (Table S2); conditions: [125I] Motilin, Human recombinant CHO cells
Chain of Motilin (O43193 whole entry): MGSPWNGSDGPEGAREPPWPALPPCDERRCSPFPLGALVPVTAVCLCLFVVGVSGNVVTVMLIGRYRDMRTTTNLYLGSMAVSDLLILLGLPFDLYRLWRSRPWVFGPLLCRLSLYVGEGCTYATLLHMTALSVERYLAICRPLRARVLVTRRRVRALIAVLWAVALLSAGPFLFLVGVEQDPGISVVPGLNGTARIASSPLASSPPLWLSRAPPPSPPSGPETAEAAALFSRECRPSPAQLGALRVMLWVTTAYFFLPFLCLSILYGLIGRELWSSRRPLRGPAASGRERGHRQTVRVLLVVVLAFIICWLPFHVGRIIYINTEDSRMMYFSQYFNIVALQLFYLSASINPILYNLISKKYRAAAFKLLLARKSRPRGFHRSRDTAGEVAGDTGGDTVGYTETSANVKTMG

Endothelin ETB = biological target: T11, Endothelin ETB (Homo sapiens, UniProt P24530); test: radioligand binding (Table S2); conditions: [125I] Endothelin-1, Human recombinant CHO cells
T11 construct: host or cells: CHO cells

Opioid δ (DOP) = biological target: T12, Opioid δ (DOP) (Homo sapiens, UniProt P41143); test: radioligand binding (Table S2); conditions: [3H] DADLE, Human recombinant CHO cells
T12 construct: host or cells: CHO cells

[7] = system: panel of G protein-coupled receptors (GPCRs), ion channels, enzymes and transporters
PKCα = PKCα (Homo sapiens, UniProt P17252); test: enzyme assay (Table S2); format: biochemical; conditions: HTRF

T1 sequence (P46663 whole entry): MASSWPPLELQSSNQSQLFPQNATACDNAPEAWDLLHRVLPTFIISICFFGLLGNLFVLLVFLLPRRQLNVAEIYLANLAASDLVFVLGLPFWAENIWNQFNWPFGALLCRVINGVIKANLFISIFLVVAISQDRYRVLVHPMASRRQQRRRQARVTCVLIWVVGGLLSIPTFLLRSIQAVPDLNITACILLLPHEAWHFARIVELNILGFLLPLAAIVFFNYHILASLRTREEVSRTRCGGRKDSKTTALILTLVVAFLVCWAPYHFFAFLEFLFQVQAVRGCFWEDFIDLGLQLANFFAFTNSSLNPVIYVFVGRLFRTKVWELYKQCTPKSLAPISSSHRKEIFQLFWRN

## Cc1cc(-c2ncnn2C)c2cccc(OCc3c(Cl)cc(F)cc3[C@H](C)NC(=O)COC(F)F)c2n1 [Compound 3, (S)-N-(1-(3-chloro-5-fluoro-2-((2-methyl-4-(1-methyl-1H-1,2,4-triazol-5-yl)quinolin-8-yloxy)methyl)phenyl)ethyl)-2-(difluoromethoxy)acetamide]
Bradykinin B1
  inhibition at 10 µM: 0.5%
[1]
  inhibition at 10 µM: 42.3%
Adrenergic α1A
  inhibition at 10 µM: 13.3%
PDGFRα kinase
  inhibition at 10 µM: -2.6%
Purinergic receptor P2Y
  % Inhibition @ 10 µM: -4.3%
B2 receptor; arithmetic mean, read-out: IC50 (nM) Mean
  IC50: 0.97 nM
B2 receptor; arithmetic mean, read-out: Ki (nM) Mean
  Ki: 0.5 nM
B2 receptor; geometric mean, read-out: IC50 (nM) Geometric mean
  IC50: 0.97 nM
B2 receptor; geometric mean, read-out: Ki (nM) Geometric mean
  Ki: 0.5 nM
[2]
  inhibition at 10 µM: -33.6%
Potassium channel hERG
  inhibition at 60 min, 10 µM: 17.8%
Apelin APJ
  inhibition at 10 µM: -0.4%
IRK (InsR)
  inhibition at 10 µM: -17.3%
[3]
  % Inhibition @ 10 µM: 7.3%
[4]
  inhibition at 10 µM: 6%
Adenosine A1
  inhibition at 10 µM: 12.4%
Glucagon
  inhibition at 10 µM: -0.6%
Lck kinase
  inhibition at 10 µM: 9.5%
[5]
  inhibition at 10 µM: -23.4%
Dog B2 receptor
  IC50: ~7600 nM
  Kb: ~2700 nM
[6]
  inhibition at 10 µM: 14.5%
Adrenergic β1
  inhibition at 10 µM: 0.3%
Galanin GAL1
  inhibition at 10 µM: 22.4%
Motilin
  inhibition at 10 µM: 5%
Endothelin ETB
  inhibition at 10 µM: 7.2%
Opioid δ (DOP)
  inhibition at 10 µM: 10.6%
[7]; 10 μM, most targets incl. bradykinin B1 and angiotensin AT1, except V1a, CRF1, EP1, TP, NK1
  inhibition of binding or functional activity at most targets: < 50%
[7]; full concentration-response curves, agonist mode
  agonism at V1a, CRF1, TP, NK1, NK3: no agonism
PKCα
  inhibition at 10 µM: 1.4%
